Measurements reported in ChEMBL document CHEMBL1124030, “Synthesis and biological activity of the four stereoisomers of 6-[4-[3-[[2-hydroxy-3-[4-[2- (cyclopropylmethoxy)ethyl]phenoxy]propyl]amino]-propionamido] phenyl]-5-methyl-4,5-dihydro-3(2H)-pyridazinone, a combined vasodilator and beta-adrenoceptor antagonist” (1988).

Tests used:
Format in all cases: functional
Felis catus = experiment: Dose required to induce 50% inhibition of isoprenaline-induced tachycardia in the ganglion blocked anesthetized cat; conditions: read-out: ID50 (the source's name)
Rattus norvegicus [1] = experiment: Dose required to produce a 50% increase in blood flow to the autoperfused hindquarters of the anesthetized normotensive rat
Rattus norvegicus [2] = experiment: Dose required to produce a fall in blood pressure of 40 mmHg in the anesthetized normotensive rat

Row | SMILES | ED50 (Felis catus) | ED50 (Rattus norvegicus [1]) | ED40 (Rattus norvegicus [2])
1 | C[C@H]1CC(=O)NN=C1c1ccc(NC(=O)CCNC[C@@H](O)COc2ccc(CCOCC3CC3)cc2)cc1 | 8.6 µmol/kg | > 40 µmol/kg | 20 µM/kg
2 | CC1CC(=O)NN=C1c1ccc(NC(=O)CCNCC(O)COc2ccc(CCOCC3CC3)cc2)cc1 (stereo not given) | 1.7 µmol/kg | 1.6 µmol/kg | 2.4 µM/kg
3 | C[C@@H]1CC(=O)NN=C1c1ccc(NC(=O)CCNC[C@H](O)COc2ccc(CCOCC3CC3)cc2)cc1 | 1.7 µmol/kg | 1 µmol/kg | 2.4 µM/kg
4 | C[C@H]1CC(=O)NN=C1c1ccc(NC(=O)CCNC[C@H](O)COc2ccc(CCOCC3CC3)cc2)cc1 | 1.6 µmol/kg | > 40 µmol/kg | >40 µM/kg
5 | C[C@@H]1CC(=O)NN=C1c1ccc(NC(=O)CCNC[C@@H](O)COc2ccc(CCOCC3CC3)cc2)cc1 | 20.2 µmol/kg | 0.9 µmol/kg | 4.9 µM/kg
